Source: patent US8435978B2, “Substituted sulfonamide compounds” (Gruenenthal GmbH, priority 2006, dated 2013)

What was measured:
human B1R receptor = target: T1, human B1R receptor (Homo sapiens, UniProt P46663); assay: Functional study on the bradykinin receptor 1 (B1R), FLIPR Ca2+ assay, hB1R cells; type: cell-based; conditions: agonist Lys-Des-Arg9-bradykinin 0.5 nM, % inhibition compared with the maximum achievable inhibition; for inhibition at 10 µM: CHO-K1, test substance 10 μM, read-out: B1R Antagonism, human [10 μM] % Inhibition
T1 construct: host or cells: CHO K1 cells (Chinese hamster ovary), stably transfected
T1 sequence (P46663 1-353): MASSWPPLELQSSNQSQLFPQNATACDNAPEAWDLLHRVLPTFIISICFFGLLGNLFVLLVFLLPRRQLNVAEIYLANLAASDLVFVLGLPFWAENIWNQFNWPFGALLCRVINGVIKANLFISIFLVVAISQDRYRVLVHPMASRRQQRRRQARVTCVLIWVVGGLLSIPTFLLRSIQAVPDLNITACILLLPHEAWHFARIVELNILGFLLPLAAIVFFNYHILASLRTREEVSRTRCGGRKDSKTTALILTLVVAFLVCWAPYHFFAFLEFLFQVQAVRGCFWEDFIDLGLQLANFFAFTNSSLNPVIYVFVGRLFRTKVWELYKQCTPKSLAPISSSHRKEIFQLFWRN
Method in brief: (§1)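 FLIPR Ca2+ assay in recombinant CHO K1 cells (human or rat B1R), Fluo-4 dye; 10 μM compound, 10 min, then EC-level agonist per species (0.5 nM Lys-Des-Arg9-BK human / 100 nM Des-Arg9-BK rat). Output: % inhibition vs maximum.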

[1] = tested on: formalin-induced pain behavior; assay: Formalin test in the mouse (phase 2, chronic pain component); type: in vivo; conditions: iv, 5 min. before formalin injection, observation 21 to 24 minutes after formalin
Description: The formalin test (Dubuisson, D. and Dennis, S. G., 1977, Pain, 4, 161-174) represents a model for both acute and chronic pain. By means of a single formalin injection into the dorsal side of a rear paw, a biphasic nociceptive reaction is induced in freely mobile test animals; the reaction is detected by observing three behaviour patterns which are clearly distinguishable from one another. The reaction is two-phase: phase 1=immediate reaction (duration up to 10 min., shaking of the paw, licking), phase 2=late reaction (after a rest phase; likewise shaking of the paw, licking; duration up to 60 min.). The 1st phase reflects a direct stimulation of the peripheral nocisensors with high spinal nociceptive input (acute pain phase); the 2nd phase reflects a spinal and peripheral hypersensitization (chronic pain phase). In the studies described here, the chronic pain component (phase 2) has been evaluated. Formalin in a volume of 20 μl and a concentration of 1% is administered subcutaneously into the dorsal side of the right rear paw of each animal. The specific changes in behavior, such as lifting, shaking or licking of the paw (score 3, Dubuisson & Dennis, 1977), are observed and recorded in the observation period of 21 to 24 minutes following the formalin injection. The behaviour of the animals after administration of the substance (n=10 per dose of substance) was compared with a control group which received vehicle (n=10). Based on the quantification of the pain behavior, the action of the substance in the formalin test was determined as the change in percent compared with the control. The ED50 calculations (ED50=mean effective dose) were carried out by regression analysis according to the method of Litchfield and Wilcoxon (Litchfield, J. T., Wilcoxon, J. J., 1949, J. Pharmacol. Exp. Ther. 96, 99-113). The time of administration before the formalin injection was chosen in dependence on the mode of administration of the compounds according to the invention (intravenous: 5 min.).

B1R receptor of the rat = target: T2, B1R receptor of the rat (Rattus norvegicus, UniProt P97583); assay: Functional study on the bradykinin receptor 1 (B1R), FLIPR Ca2+ assay, rB1R cells; type: cell-based; conditions: agonist Des-Arg9-bradykinin 100 nM, % inhibition compared with the maximum achievable inhibition; for inhibition at 10 µM: CHO-K1, test substance 10 μM, read-out: B1R Antagonism, rat [10 μM] % Inhibition
T2 construct: host or cells: CHO K1 cells (Chinese hamster ovary), stably transfected
T2 sequence (P97583 1-337): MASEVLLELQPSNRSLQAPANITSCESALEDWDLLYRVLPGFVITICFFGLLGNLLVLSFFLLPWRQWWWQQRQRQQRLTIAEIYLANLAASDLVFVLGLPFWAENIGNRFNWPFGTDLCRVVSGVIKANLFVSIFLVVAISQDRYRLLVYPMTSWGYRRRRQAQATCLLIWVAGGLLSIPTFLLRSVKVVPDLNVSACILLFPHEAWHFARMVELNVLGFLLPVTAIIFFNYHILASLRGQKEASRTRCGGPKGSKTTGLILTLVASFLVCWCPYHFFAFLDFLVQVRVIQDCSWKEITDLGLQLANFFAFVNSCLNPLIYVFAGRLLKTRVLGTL
Method in brief: as §1

inhibition at 10 µM (human B1R receptor) [%] | inhibition at 10 µM (B1R receptor of the rat) [%] | B1R Antagonism, human [10 μM] % Inhibition (human B1R receptor; test substance 10 μM, hB1R CHO K1 cells) [%] | B1R Antagonism, rat [10 μM] % Inhibition (B1R receptor of the rat; test substance 10 μM, rB1R CHO K1 cells) [%] | Compound | ED50 [1] [mg/kg]
104 | 98.3 | – | – | COc1cc(C)c(S(=O)(=O)N2CCCCC2COCC(=O)N(C)Cc2ccc(C3=NCCN3)cc2)c(C)c1.Cl (centres unmarked) [Example 193, N-(4-(4,5-dihydro-1H-imidazol-2-yl)benzyl)-2-((1-(4-methoxy-2,6-dimethylphenylsulfonyl)piperidin-2-yl)methoxy)-N-methylacetamide hydrochloride] | 2.59
98 | 98.2 | – | – | COc1cc(C)c(S(=O)(=O)N2CCCCC2COCC(=O)N2CCN(C3CCN(C)CC3)CC2)c(C)c1.Cl.Cl (centres unmarked) [Example 97, 2-((1-(4-methoxy-2,6-dimethylphenylsulfonyl)piperidin-2-yl)methoxy)-1-(4-(1-methylpiperidin-4-yl)piperazin-1-yl)ethanone dihydrochloride] | 13.3
104 | 101 | – | – | COc1cc(C)c(S(=O)(=O)N2CCCCC2COCC(=O)N2CCC(N3CCN4CCCCC4C3)CC2)c(C)c1 (centres unmarked) [Example 98, 1-(4-(dihydro-1H-pyrido[1,2-a]pyrazin-2(6H,7H,8H,9H,9aH)-yl)piperidin-1-yl)-2-((1-(4-methoxy-2,6-dimethylphenylsulfonyl)piperidin-2-yl)methoxy)ethanone] | 13.6
92.2 | 107 | – | – | COc1cc(C)c(S(=O)(=O)N2CCCCC2COCC(=O)NCc2ccc(CN3CCOCC3)cc2)c(C)c1 (centres unmarked) [Example 24, 2-[1-(4-methoxy-2,6-dimethyl-phenylsulfonyl)-piperidin-2-ylmethoxy]-N-(4-morpholin-4-ylmethyl-benzyl)-acetamide] | –
– | – | 101.62 | 100.66 | COc1cc(C)c(S(=O)(=O)N2CCCCC2COCC(=O)N2CCC(N3CCN(C)CC3)CC2)c(C)c1 (centres unmarked) [Example 524, 2-((1-(4-methoxy-2,6-dimethylphenylsulfonyl)piperidin-2-yl)methoxy)-1-(4-(4-methylpiperazin-1-yl)piperidin-1-yl)ethanone] | –
103 | 97.9 | – | – | COc1cc(OC)cc(N2CCN(C(=O)COCC3CCCN3S(=O)(=O)c3c(C)cc(OC)cc3C)CC2)c1 (centres unmarked) [Example 503, 1-(4-(3,5-dimethoxyphenyl)piperazin-1-yl)-2-((1-(4-methoxy-2,6-dimethylphenylsulfonyl)pyrrolidin-2-yl)methoxy)ethanone] | –
106 | 101 | – | – | COc1cc(C)c(S(=O)(=O)N2CCCC2COCC(=O)Nc2ccc(N3CCN(C)CC3)cc2)c(C)c1 (centres unmarked) [Example 301, 2-((1-(4-methoxy-2,6-dimethylphenylsulfonyl)pyrrolidin-2-yl)methoxy)-N-(4-(4-methylpiperazin-1-yl)phenyl)acetamide] | –
59.1 | 85.9 | – | – | COc1cc(C)c(S(=O)(=O)N2CCCC2COCC(=O)N2CCCC2c2ccccn2)c(C)c1 (centres unmarked) [Example 271, 2-((1-(4-methoxy-2,6-dimethylphenylsulfonyl)pyrrolidin-2-yl)methoxy)-1-(2-(pyridin-2-yl)pyrrolidin-1-yl)ethanone] | –
102 | 98.7 | – | – | COc1cc(C)c(S(=O)(=O)N2CCCCC2COCC(=O)N2CCC(N3CCc4cc(F)ccc4C3)CC2)c(C)c1 (centres unmarked) [Example 200, 1-(4-(6-fluoro-3,4-dihydroisoquinolin-2(1H)-yl)piperidin-1-yl)-2-((1-(4-methoxy-2,6-dimethylphenylsulfonyl)piperidin-2-yl)methoxy)ethanone] | –
104 | 99.3 | – | – | O=C(COCC1CCCCN1S(=O)(=O)c1c(Cl)cccc1Cl)N1CCC(N2CCCC2)CC1 (centres unmarked) [Example 443, 2-((1-(2,6-dichlorophenylsulfonyl)piperidin-2-yl)methoxy)-1-(4-(pyrrolidin-1-yl)piperidin-1-yl)ethanone] | –
